Test results as given in DBAASP.
In brackets after ≈: the same amount, converted by molar mass. Several values for one entry are separate records, joined by “and”; a condition that tells them apart may be missing. Equal values may be shown once.

Key:
Assay in all cases: ≥ marks a high value that may be exact or a test limit, other limits are often not marked, values filed in µg/mL are converted to µM
[1] = tested on: Lacticaseibacillus rhamnosus 1.0385
[2] = tested on: Pseudomonas aeruginosa ATCC 27853
Escherichia coli UB1005 = tested on: Escherichia coli UB1005
[3] = tested on: Salmonella enterica subsp. enterica serovar Typhimurium ATCC 14028
[4] = tested on: Staphylococcus aureus ATCC 25923
[5] = tested on: Lacticaseibacillus rhamnosus 7469
[6] = tested on: Lactiplantibacillus plantarum 8014
[7] = tested on: Lacticaseibacillus rhamnosus 1.0936
Escherichia coli K99 = tested on: Escherichia coli K99
[8] = tested on: Staphylococcus aureus ATCC 43300
[9] = tested on: Escherichia coli ATCC 25922
[10] = tested on: Lacticaseibacillus rhamnosus 1.0911
[11] = tested on: Salmonella enterica subsp. enterica serovar Typhimurium C77-31
[12] = tested on: Salmonella enterica subsp. enterica serovar Pullorum C79-13
Escherichia coli K88 = tested on: Escherichia coli K88
[13] = tested on: Staphylococcus aureus ATCC 29213
[14] = tested on: Enterococcus faecalis ATCC 29212
Staphylococcus aureus = tested on: Staphylococcus aureus
Streptococcus agalactiae = tested on: Streptococcus agalactiae
[15] = tested on: Staphylococcus epidermidis ATCC 12228
[16] = tested on: Salmonella enterica subsp. enterica serovar Choleraesuis CVCC 503
[17] = tested on: Staphylococcus aureus ATCC 6538
[18] = tested on: Candida albicans ATCC 36232
[19] = tested on: Micrococcus luteus ATCC 9341
Bacillus subtilis 168 HT = tested on: Bacillus subtilis 168 HT
Escherichia coli MG1655 = tested on: Escherichia coli MG1655
[20] = tested on: Acinetobacter baumannii 9931
[21] = tested on: Staphylococcus aureus 113
[22] = tested on: Pseudomonas aeruginosa ATCC 9027
[23] = tested on: Klebsiella pneumoniae ATCC 700603
Staphylococcus aureus 75 = tested on: Staphylococcus aureus 75
Escherichia coli 780 = tested on: Escherichia coli 780
[24] = tested on: Bacillus subtilis ATCC 23857
[25] = tested on: Pseudomonas aeruginosa 50
[26] = tested on: Acinetobacter baumannii ATCC 19606

Row | MIC [2] [µM] | MIC (Escherichia coli UB1005) [µM] | MIC [3] [µM] | MIC [4] | MIC [8] [µM] | MIC [9] [µM] | MIC [11] [µM] | MIC [12] [µM] | MIC [13] | MIC [15] [µM] | SMILES | other results
1 | > 64 | 8 (≈ 13.7 µg/mL) | 64 (≈ 110 µg/mL) | 4 µM (≈ 6.87 µg/mL) | 4 (≈ 6.87 µg/mL) | 8 (≈ 13.7 µg/mL) | ≥ 32 | 8 (≈ 13.7 µg/mL) | – | – | C[C@@H]1NC(=O)[C@@H](N)CSSC[C@@H](C(=O)N[C@@H](CCCN=C(N)N)C(=O)N[C@@H](Cc2c[nH]c3ccccc23)C(=O)N[C@@H](Cc2c[nH]c3ccccc23)C(=O)N[C@@H](Cc2c[nH]c3ccccc23)C(=O)N[C@@H](CCCN=C(N)N)C(=O)N[C@@H](CCCN=C(N)N)C(N)=O)NC(=O)[C@H](Cc2ccccc2)NC(=O)[C@H](Cc2ccc(O)cc2)NC(=O)[C@H](CO)NC1=O [CASYFCRWWWRR] | MIC [1]: ≥ 64 µM; MIC [5]: ≥ 64 µM; MIC [6]: ≥ 64 µM; MIC [7]: ≥ 64 µM; MIC (Escherichia coli K99): 4 µM (≈ 6.87 µg/mL); MIC [10]: ≥ 64 µM; MIC (Escherichia coli K88): ≥ 32 µM
2 | – | 1 (≈ 3.09 µg/mL) | 2 (≈ 6.17 µg/mL) | – | 16 (≈ 49.4 µg/mL) | – | 2 (≈ 6.17 µg/mL) | 8 (≈ 24.7 µg/mL) | 32 µM and 64 µM | 16 (≈ 49.4 µg/mL) | CC[C@H](C)[C@H](N)C(=O)N[C@H](C(=O)N[C@@H](CS)C(=O)N[C@@H](CCCN=C(N)N)C(=O)N[C@@H](CCCCN)C(=O)N1CCC[C@H]1C(=O)N[C@H](C(=O)N[C@H](C(=O)N[C@@H](CS)C(=O)N[C@@H](CCCN=C(N)N)C(=O)N[C@@H](CCCCN)C(=O)N1CCC[C@H]1C(=O)N[C@H](C(=O)N[C@H](C(=O)N[C@@H](CS)C(=O)N[C@@H](CCCN=C(N)N)C(=O)N[C@@H](CCCCN)C(=O)N1CCC[C@H]1C(=O)N[C@H](C(=O)N[C@H](C(=O)N[C@@H](CS)C(=O)N[C@@H](CCCN=C(N)N)C(=O)N[C@@H](CCCCN)C(=O)N1CCC[C@H]1C(=O)N[C@H](C(=O)N[C@H](C(N)=O)[C@@H](C)CC)[C@@H](C)CC)[C@@H](C)CC)[C@@H](C)CC)[C@@H](C)CC)[C@@H](C)CC)[C@@H](C)CC)[C@@H](C)CC)[C@@H](C)CC [IICRKPIICRKPIICRKPIICRKPII] | MIC [14]: 32 µM (≈ 98.8 µg/mL); MIC (Staphylococcus aureus): 16 µM (≈ 49.4 µg/mL); MIC (Streptococcus agalactiae): 16 µM (≈ 49.4 µg/mL); MIC [16]: 4 µM (≈ 12.3 µg/mL)
3 | – | – | – | – | – | – | – | – | – | – | CC(C)[C@H](NC(=O)[C@H](CCCCN)NC(=O)[C@H](Cc1ccccc1)NC(=O)[C@@H](NC(=O)[C@@H](NC(=O)[C@@H](N)CCCCN)C(C)C)C(C)C)C(=O)N[C@@H](CCCCN)C(=O)N[C@@H](Cc1ccccc1)C(=O)N[C@@H](CCCCN)C(=O)N[C@@H](CCCCN)C(=O)N[C@@H](CCCCN)C(N)=O [KVVFKVKFKKK] | MIC [17]: 2.27 µM (≈ 3.13 µg/mL); MIC [18]: 4.53 µM and 2.27 µM and 3.21 µM; MIC [19]: 2.27 µM (≈ 3.13 µg/mL)
4 | – | – | – | – | – | – | – | – | – | – | CC(C)C[C@H](NC(=O)[C@H](Cc1ccccc1)NC(=O)[C@H](CS)NC(=O)[C@@H](NC(=O)[C@H](CC(C)C)NC(=O)[C@H](CCCN=C(N)N)NC(=O)[C@H](Cc1c[nH]c2ccccc12)NC(=O)[C@@H](N)CCCN=C(N)N)C(C)C)C(=O)N[C@@H](CS)C(=O)N[C@@H](CCCN=C(N)N)C(=O)N[C@@H](CCCN=C(N)N)C(=O)N[C@@H](CCCCN)C(=O)N[C@@H](CCCCN)C(=O)N[C@H](C(=O)O)C(C)C [RWRLVCFLCRRKKV] | MIC (Bacillus subtilis 168 HT): 8.6 µM (≈ 16 µg/mL); MIC (Escherichia coli MG1655): 17.2 µM (≈ 32.1 µg/mL)
5 | > 64 | ≥ 64 | > 64 | > 64 µM | > 64 | > 64 | ≥ 64 | ≥ 64 | > 64 µM | – | C[C@H](NC(=O)[C@H](C)NC(=O)[C@H](Cc1c[nH]c2ccccc12)NC(=O)[C@H](Cc1c[nH]c2ccccc12)NC(=O)[C@H](Cc1c[nH]c2ccccc12)NC(=O)[C@@H](N)CCCN=C(N)N)C(N)=O [RWWWAA] | MIC [1]: ≥ 64 µM; MIC [5]: ≥ 64 µM; MIC [6]: ≥ 64 µM; MIC [7]: ≥ 64 µM; MIC (Escherichia coli K99): ≥ 64 µM; MIC [10]: ≥ 64 µM; MIC (Escherichia coli K88): ≥ 64 µM
6 | – | 16 (≈ 33.1 µg/mL) | 8 (≈ 16.5 µg/mL) | – | > 64 | 8 (≈ 16.5 µg/mL) | 16 (≈ 33.1 µg/mL) | ≥ 64 | > 64 µM | > 64 | CC(C)[C@H](N)C(=O)N[C@@H](CS)C(=O)N[C@@H](CCCN=C(N)N)C(=O)N[C@@H](CCCCN)C(=O)N1CCC[C@H]1C(=O)N[C@H](C(=O)N[C@H](C(=O)N[C@@H](CS)C(=O)N[C@@H](CCCN=C(N)N)C(=O)N[C@@H](CCCCN)C(=O)N1CCC[C@H]1C(=O)N[C@H](C(=O)N[C@H](C(=O)N[C@@H](CS)C(=O)N[C@@H](CCCN=C(N)N)C(=O)N[C@@H](CCCCN)C(=O)N1CCC[C@H]1C(=O)N[C@H](C(N)=O)C(C)C)C(C)C)C(C)C)C(C)C)C(C)C [VCRKPVVCRKPVVCRKPV] | MIC [14]: > 64 µM; MIC (Staphylococcus aureus): > 64 µM; MIC (Streptococcus agalactiae): ≥ 64 µM; MIC [16]: ≥ 64 µM
7 | 16 (≈ 42.6 µg/mL) | – | – | 8 µM and 16 µM | – | – | – | – | 8 µM (≈ 21.3 µg/mL) | 4 (≈ 10.6 µg/mL) | NC(=O)[C@H](Cc1c[nH]c2ccccc12)NC(=O)[C@H](CCCN=C(N)N)NC(=O)[C@H](Cc1c[nH]c2ccccc12)NC(=O)[C@H](Cc1c[nH]c2ccccc12)NC(=O)[C@H](CCCN=C(N)N)NC(=O)[C@H](Cc1c[nH]c2ccccc12)NC(=O)[C@H](Cc1c[nH]c2ccccc12)NC(=O)[C@H](CCCN=C(N)N)NC(=O)[C@H](Cc1c[nH]c2ccccc12)NC(=O)[C@H](Cc1c[nH]c2ccccc12)NC(=O)[C@H](CCCN=C(N)N)NC(=O)[C@H](Cc1c[nH]c2ccccc12)NC(=O)[C@H](Cc1c[nH]c2ccccc12)NC(=O)[C@H](CCCN=C(N)N)NC(=O)[C@@H](N)Cc1c[nH]c2ccccc12 [WRWWRWWRWWRWWRW] | MIC [20]: 16 µM (≈ 42.6 µg/mL); MIC [21]: 4 µM (≈ 10.6 µg/mL); MIC [22]: 16 µM (≈ 42.6 µg/mL); MIC [23]: 16 µM (≈ 42.6 µg/mL); MIC (Staphylococcus aureus 75): 8 µM (≈ 21.3 µg/mL); MIC (Escherichia coli 780): 16 µM (≈ 42.6 µg/mL); MIC [24]: 4 µM (≈ 10.6 µg/mL); MIC [25]: ≥ 32 µM; MIC [26]: 16 µM (≈ 42.6 µg/mL)
